Assay results as given in US20240140986A1, “SYNTHETIC URSOLIC ACID DERIVATIVES AND METHODS OF USE THEREOF” (REATA PHARMACEUTICALS, INC., priority 2021, published 2024).
Like-named read-outs stand apart in the source and are kept apart here.

Experiments:
[1] = test system: Nrf2 / ARE-dependent luciferase in AREc32 reporter cell line; experiment: AREc32 luciferase reporter activation (Nrf2 induction); format: cell-based, human; conditions: for EC (2-fold): Homo sapiens, Arec32; for Relative Avg AREc32 EC2X Relative to RTA402 (fold): ratio to RTA402
Method in brief: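 EC2X is the concentration raising luminescence 2-fold above DMSO-treated cells, from a nonlinear-regression dose–response fit. Compounds (0.03–1000 nM) were applied for nineteen hours, starting one day after seeding 20,000 reporter cells per well. Luciferase was read with One-Glo reagent.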

[2] = test system: IFNγ-induced NO production in RAW 264.7 cells; experiment: Nitric Oxide Suppression Assay (IFNγ-induced NO, Griess nitrite readout); format: cell-based, mouse; conditions: for IC50: Mus musculus; for Avg NO IC50 Relative to RTA402 (fold): Table 2, ratio to RTA402
Method in brief: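 RAW 264.7 mouse macrophages in RPMI 1640 with 0.5% FBS were pretreated 2 h with compound (0.1% DMSO final), then stimulated with 20 ng/mL IFNγ for 24 h at 37° C. Supernatant nitrite was read by Griess absorbance at 525 nm against a nitrite standard curve, normalized to DMSO-IFNγ wells; IC50 from curve fit. Viability by WST-1.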

[3] = Table 2, concentration increasing luminescence 2-fold above vehicle, 19 h treatment, read-out: Avg AREc32 EC2X (nM) (Mean ± SD)
[4] = RAW264.7, Table 2, RAW 264.7 cells, 2 h pretreatment, 20 ng/mL interferon gamma 24 h, read-out: Avg NO IC50 (nM) (Mean ± SD)
[5] = Table 3, ursolic acid derivatives, read-out: Avg ARE EC-2X (nM) (Mean ± SD)
[6] = RAW264.7, Table 3, ursolic acid derivatives, read-out: Avg NO IC50 (nM) (Mean ± SD)
[7] = Table 3, oleanolic acid derivative analogs, read-out: Avg ARE EC-2X
[8] = RAW264.7, Table 3, oleanolic acid derivative analogs, read-out: Avg NO IC50

IC50 [2, 4] [nM]	Avg NO IC50 Relative to RTA402 (fold) [2] [fold]	IC50 [2, 6] [nM]	IC50 [2, 8] [nM]	Structure (SMILES)	EC (2-fold) [1, 3] [nM]	Relative Avg AREc32 EC2X Relative to RTA402 (fold) ([1]; Table 2)	EC (2-fold) [1, 5] [nM]	EC (2-fold) [1, 7] [nM]
58.4 ± 9.1	23.3 ± 10.3	–	–	C[C@@H]1[C@H]2[C@H]3C(=O)C=C4[C@@]5(C)C=C(C#N)C(=O)C(C)(C)[C@@H]5CC[C@@]4(C)[C@]3(C)CC[C@@]2(n2cc(Br)cn2)CC[C@H]1C [Compound T63]	76 ± 9.6	6.8 ± 1.1	–	–
13.8 ± 1.5	3.66 ± 1.49	–	–	C[C@H]1[C@H](C)CC[C@]2(Cn3cncn3)CC[C@]3(C)C(O)(C(=O)C=C4[C@@]5(C)C=C(C#N)C(=O)C(C)(C)[C@@H]5CC[C@]43C)[C@H]12 (some centres unmarked) [Compound T48]	7.18 ± 1.2	0.602 ± 0.010	–	–
2.33 ± 1.47	0.74 ± 0.14	2.33 ± 1.47	–	C[C@@H]1[C@H]2[C@H]3C(=O)C=C4[C@@]5(C)C=C(C#N)C(=O)C(C)(C)[C@@H]5CC[C@@]4(C)[C@]3(C)CC[C@@]2(CNC(=O)C2CC2)CC[C@H]1C [Compound T19]	2.27 ± 0.52	0.224 ± 0.072	2.27 ± 0.52	–
21.3 ± 7.4	9.86 ± 0.83	21.3 ± 7.4	–	C[C@@H]1[C@H]2[C@H]3C(=O)C=C4[C@@]5(C)C=C(C#N)C(=O)C(C)(C)[C@@H]5CC[C@@]4(C)[C@]3(C)CC[C@@]2(c2nc(C3CC3)no2)CC[C@H]1C [Compound T2]	35 ± 2	3.41 ± 0.20	35 ± 2	–
3.65 ± 1.87	1.62 ± 0.54	–	–	COCCc1noc([C@]23CC[C@@H](C)[C@H](C)[C@H]2[C@H]2C(=O)C=C4[C@@]5(C)C=C(C#N)C(=O)C(C)(C)[C@@H]5CC[C@@]4(C)[C@]2(C)CC3)n1 [Compound T7]	6.16 ± 0.7	0.595 ± 0.079	–	–
–	–	–	8.6	CC1(C)CC[C@]2(CN3NCCC3=O)CC[C@]3(C)[C@H](C(=O)C=C4[C@@]5(C)C=C(C#N)C(=O)C(C)(C)[C@@H]5CC[C@]43C)[C@@H]2C1 [CC54, reference compound]	–	–	–	11.7
7.7 ± 3.1	2.25 ± 0.49	–	–	C[C@@H]1[C@H]2[C@H]3C(=O)C=C4[C@@]5(C)C=C(C#N)C(=O)C(C)(C)[C@@H]5CC[C@@]4(C)[C@]3(C)CC[C@@]2(CNS(C)(=O)=O)CC[C@H]1C [Compound T31]	4.36 ± 0.81	0.373 ± 0.071	–	–
12.5 ± 7.3	4.11 ± 0.26	–	–	C[C@@H]1[C@H]2[C@H]3C(=O)C=C4[C@@]5(C)C=C(C#N)C(=O)C(C)(C)[C@@H]5CC[C@@]4(C)[C@]3(C)CC[C@@]2(n2cnnn2)CC[C@H]1C [Compound T61]	7.53 ± 2.25	0.601 ± 0.122	–	–
19.1 ± 4.9	12.6 ± 1.9	–	–	CNC(=O)CC[C@]12CC[C@@H](C)[C@H](C)[C@H]1[C@H]1C(=O)C[C@@H]3[C@@]4(C)C=C(C#N)C(=O)C(C)(C)[C@@H]4CC[C@@]3(C)[C@]1(C)CC2 [Compound T104]	29.5 ± 2.5	3.15 ± 0.64	–	–
2.76 ± 1.02	1.09 ± 0.03	–	–	C[C@@H]1[C@H]2[C@H]3C(=O)C=C4[C@@]5(C)C=C(C#N)C(=O)C(C)(C)[C@@H]5CC[C@@]4(C)[C@]3(C)CC[C@@]2(CCC(=O)N2CCC2)CC[C@H]1C [Compound T80]	3.72 ± 0.14	0.311 ± 0.023	–	–
3.33 ± 0.68	1.59 ± 0.20	3.33 ± 0.68	–	C[C@@H]1[C@H]2[C@H]3C(=O)C=C4[C@@]5(C)C=C(C#N)C(=O)C(C)(C)[C@@H]5CC[C@@]4(C)[C@]3(C)CC[C@@]2(c2nc(CN(C)C)no2)CC[C@H]1C [Compound T8]	3.72 ± 0.97	0.321 ± 0.059	3.72 ± 0.97	–
–	–	–	3.3	CN(C)Cc1noc([C@]23CCC(C)(C)C[C@H]2[C@H]2C(=O)C=C4[C@@]5(C)C=C(C#N)C(=O)C(C)(C)[C@@H]5CC[C@@]4(C)[C@]2(C)CC3)n1 [CC8, reference compound]	–	–	–	3.72
4.69 ± 1.87	2.44 ± 1.39	–	–	CNC(=O)C[C@]12CC[C@@H](C)[C@H](C)[C@H]1[C@H]1C(=O)C=C3[C@@]4(C)C=C(C#N)C(=O)C(C)(C)[C@@H]4CC[C@@]3(C)[C@]1(C)CC2 [Compound T91]	2.96 ± 0.77	0.359 ± 0.078	–	–
10.4 ± 2.6	3.38 ± 0.68	–	–	C[C@@H]1[C@H]2[C@H]3C(=O)C=C4[C@@]5(C)C=C(C#N)C(=O)C(C)(C)[C@@H]5CC[C@@]4(C)[C@]3(C)CC[C@@]2(CN(C)C(=O)C(F)F)CC[C@H]1C [Compound T39]	9.58 ± 2.31	0.799 ± 0.095	–	–
19.7 ± 1.8	13 ± 2.7	–	–	C[C@@H]1[C@H]2[C@H]3C(=O)C=C4[C@@]5(C)C=C(C#N)C(=O)C(C)(C)[C@@H]5CC[C@@]4(C)[C@]3(C)CC[C@@]2(C(=O)N2CCCC2)CC[C@H]1C [Compound T71]	29.3 ± 8.1	2.95 ± 0.14	–	–
–	–	–	3.5	CC1(C)CC[C@]2(N)CC[C@]3(C)[C@H](C(=O)C=C4[C@@]5(C)C=C(C#N)C(=O)C(C)(C)[C@@H]5CC[C@]43C)[C@@H]2C1 [CC16, reference compound]	–	–	–	27.7
38.2 ± 10	14.80 ± 6.91	38.2 ± 10	–	C[C@@H]1[C@H]2[C@H]3C(=O)C=C4[C@@]5(C)C=C(C#N)C(=O)C(C)(C)[C@@H]5CC[C@@]4(C)[C@]3(C)CC[C@@]2(CN2CCOC2)CC[C@H]1C [Compound T42]	26.3 ± 6	2.43 ± 0.39	26.3 ± 6	–
8.74 ± 2.77	4.60 ± 2.34	–	–	C[C@@H]1[C@H]2[C@H]3C(=O)C=C4[C@@]5(C)C=C(C#N)C(=O)C(C)(C)[C@@H]5CC[C@@]4(C)[C@]3(C)CC[C@@]2(CC(N)=O)CC[C@H]1C [Compound T90]	3.71 ± 0.99	0.455 ± 0.131	–	–
5.57 ± 2	1.66 ± 0.32	5.57 ± 2	–	CC(=O)N(C)C[C@]12CC[C@@H](C)[C@H](C)[C@H]1[C@H]1C(=O)C=C3[C@@]4(C)C=C(C#N)C(=O)C(C)(C)[C@@H]4CC[C@@]3(C)[C@]1(C)CC2 [Compound T35]	5.05 ± 1.1	0.442 ± 0.136	5.05 ± 1.1	–
4.43 ± 2.68	2.75 ± 1.67	–	–	C[C@@H]1[C@H]2[C@H]3C(=O)C=C4[C@@]5(C)C=C(C#N)C(=O)C(C)(C)[C@@H]5CC[C@@]4(C)[C@]3(C)CC[C@@]2(C=O)CC[C@H]1C [Compound T83]	2.37 ± 0.33	0.294 ± 0.048	–	–
–	–	–	1.7	CC1(C)CC[C@]2(CN3CCOC3=O)CC[C@]3(C)[C@H](C(=O)C=C4[C@@]5(C)C=C(C#N)C(=O)C(C)(C)[C@@H]5CC[C@]43C)[C@@H]2C1 [CC41, reference compound]	–	–	–	5.12
20.1 ± 6	8.81 ± 0.63	–	–	CO/N=C/[C@]12CC[C@@H](C)[C@H](C)[C@H]1[C@H]1C(=O)C=C3[C@@]4(C)C=C(C#N)C(=O)C(C)(C)[C@@H]4CC[C@@]3(C)[C@]1(C)CC2 [Compound T57]	34.1 ± 4.98	2.73 ± 0.34	–	–
7.91 ± 2.32	4.07 ± 1.76	–	–	C[C@@H]1[C@H]2[C@H]3C(=O)C=C4[C@@]5(C)C=C(C#N)C(=O)C(C)(C)[C@@H]5CC[C@@]4(C)[C@]3(C)CC[C@@]2(/C=N/O)CC[C@H]1C [Compound T84]	9.29 ± 1.52	1.14 ± 0.22	–	–

Structure (SMILES)	IC50 [2, 4] [nM]	Avg NO IC50 Relative to RTA402 (fold) [2] [fold]	IC50 [2, 6] [nM]	IC50 [2, 8] [nM]	EC (2-fold) [1, 3] [nM]	Relative Avg AREc32 EC2X Relative to RTA402 (fold) ([1]; Table 2)	EC (2-fold) [1, 5] [nM]	EC (2-fold) [1, 7] [nM]
CC1(C)CC[C@]2(CNC(=O)C3CC3)CC[C@]3(C)[C@H](C(=O)C=C4[C@@]5(C)C=C(C#N)C(=O)C(C)(C)[C@@H]5CC[C@]43C)[C@@H]2C1 [CC19, reference compound]	–	–	–	0.5	–	–	–	3.22
CC1(C)CC[C@]2(CN3CCCC3=O)CC[C@]3(C)[C@H](C(=O)C=C4[C@@]5(C)C=C(C#N)C(=O)C(C)(C)[C@@H]5CC[C@]43C)[C@@H]2C1 [CC15, reference compound]	–	–	–	1.1	–	–	–	6.66
